Converted amounts (≈) assume the structure as drawn.

S. aureus GyrB ATPase, sequence (P0AES4 whole entry): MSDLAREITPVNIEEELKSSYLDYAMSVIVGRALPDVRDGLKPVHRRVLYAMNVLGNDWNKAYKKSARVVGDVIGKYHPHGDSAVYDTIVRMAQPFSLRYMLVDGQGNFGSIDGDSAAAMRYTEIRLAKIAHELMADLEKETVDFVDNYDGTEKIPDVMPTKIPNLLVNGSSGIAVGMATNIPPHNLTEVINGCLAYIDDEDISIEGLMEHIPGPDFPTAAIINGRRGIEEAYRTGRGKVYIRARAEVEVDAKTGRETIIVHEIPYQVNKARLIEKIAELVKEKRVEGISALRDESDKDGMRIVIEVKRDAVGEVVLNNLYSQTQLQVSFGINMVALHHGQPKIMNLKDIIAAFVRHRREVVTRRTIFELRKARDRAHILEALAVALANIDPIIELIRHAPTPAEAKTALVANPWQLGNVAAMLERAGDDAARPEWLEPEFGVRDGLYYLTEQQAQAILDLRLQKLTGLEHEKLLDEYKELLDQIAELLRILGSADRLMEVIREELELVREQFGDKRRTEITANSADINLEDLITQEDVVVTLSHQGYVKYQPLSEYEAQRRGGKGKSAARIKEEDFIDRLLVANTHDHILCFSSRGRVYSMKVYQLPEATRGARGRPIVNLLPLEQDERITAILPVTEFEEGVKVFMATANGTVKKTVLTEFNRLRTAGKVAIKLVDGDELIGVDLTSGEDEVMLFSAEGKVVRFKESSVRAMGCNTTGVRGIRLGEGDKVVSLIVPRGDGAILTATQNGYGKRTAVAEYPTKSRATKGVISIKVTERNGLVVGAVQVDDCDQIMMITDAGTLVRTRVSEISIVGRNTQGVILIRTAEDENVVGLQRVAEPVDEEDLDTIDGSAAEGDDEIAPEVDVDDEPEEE
S. aureus GyrB ATPase, sequence (P0A0K8 whole entry): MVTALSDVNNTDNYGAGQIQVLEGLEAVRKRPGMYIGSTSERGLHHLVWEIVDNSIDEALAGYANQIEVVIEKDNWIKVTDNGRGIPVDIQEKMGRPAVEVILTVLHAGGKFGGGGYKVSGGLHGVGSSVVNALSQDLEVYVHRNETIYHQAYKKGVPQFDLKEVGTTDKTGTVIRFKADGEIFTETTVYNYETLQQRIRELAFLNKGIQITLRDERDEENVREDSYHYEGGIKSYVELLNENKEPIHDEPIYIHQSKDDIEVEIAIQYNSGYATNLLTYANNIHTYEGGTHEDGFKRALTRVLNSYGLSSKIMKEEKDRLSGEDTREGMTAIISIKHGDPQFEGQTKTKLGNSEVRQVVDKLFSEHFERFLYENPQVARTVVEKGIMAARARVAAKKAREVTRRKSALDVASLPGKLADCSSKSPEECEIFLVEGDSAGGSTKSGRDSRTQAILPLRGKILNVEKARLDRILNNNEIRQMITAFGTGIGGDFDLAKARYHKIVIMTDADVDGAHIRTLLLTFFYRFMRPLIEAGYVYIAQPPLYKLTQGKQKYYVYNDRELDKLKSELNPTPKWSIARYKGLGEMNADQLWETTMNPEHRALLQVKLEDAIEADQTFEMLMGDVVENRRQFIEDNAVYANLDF

The first test deals with Streptococcus pneumoniae. As to the kind of experiment: Bacterial susceptibility testing in liquid media (MIC). It is filed as cell-based. As to conditions: 37° C., 24 hrs, lowest concentration reducing growth by 80% or more, read-out: MIC against Streptococcus pneumoniae. The text has this:
Compounds may be tested for antimicrobial activity by susceptibility testing in liquid media. Compounds may be dissolved in dimethylsulfoxide and tested in 10 doubling dilutions in the susceptibility assays. The organisms used in the assay may be grown overnight on suitable agar media and then suspended in a liquid medium appropriate for the growth of the organism. The suspension can be a 0.5 McFarland and a further 1 in 10 dilution can be made into the same liquid medium to prepare the final organism suspension in 100 μL. Plates can be incubated under appropriate conditions at 37° C. for 24 hrs prior to reading. The Minimum Inhibitory Concentration (MIC) may be determined as the lowest drug concentration able to reduce growth by 80% or more.
What is called MIC is the lowest concentration found to suppress growth. Turning to `COc1cc(OC)nc(-c2nc(N3CC[C@@H](NC(=O)c4[nH]c(C)c(Cl)c4Cl)[C@@H](OC)C3)sc2C(=O)O)n1` [Example 11, 2-((3S,4R)-4-{[(3,4-Dichloro-5-methyl-1H-pyrrol-2-yl)carbonyl]amino}-3-methoxypiperidin-1-yl)-4-(4,6-dimethoxypyrimidin-2-yl)-1,3-thiazole-5-carboxylic acid], the MIC came to 0.06 µg/mL (≈ 0.105 µM).

Another test deals with S. aureus GyrB ATPase (Staphylococcus aureus, UniProt P0A0K8). Put plainly: S. aureus GyrB ATPase inhibition (ammonium molybdate/malachite green phosphate detection). It counts as biochemical. As to conditions: compound concentration of 1 μM. A digest of the protocol:
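E. coli GyrA and S. aureus GyrB (250 pM each) with sheared salmon sperm DNA and 250 μM ATP, pH 7.5 Hepes buffer. Released phosphate detected by malachite green/ammonium molybdate at 650 nm; percent inhibition at 1 μM compound unless noted, normalized to 2% DMSO (0%) and EDTA (100%) controls.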
What is called inhibition is the change of the read-out against control, counted positive when it falls. Take `COc1cc(OC)nc(-c2nc(N3CC[C@@H](NC(=O)c4[nH]c(C)c(Cl)c4Cl)[C@@H](OC)C3)sc2C(=O)O)n1` [Example 11, 2-((3S,4R)-4-{[(3,4-Dichloro-5-methyl-1H-pyrrol-2-yl)carbonyl]amino}-3-methoxypiperidin-1-yl)-4-(4,6-dimethoxypyrimidin-2-yl)-1,3-thiazole-5-carboxylic acid]: the inhibition at 1 µM is 92%.
On the same count and under the same terms, the same measure for `CCOC(=O)c1sc(N2CC[C@@H](NC(=O)c3[nH]c(C)c(Cl)c3C#N)[C@@H](OC)C2)nc1-c1cn(C)cn1` [Example 108, ethyl 2-((3S,4R)-4-(4-chloro-3-cyano-5-methyl-1H-pyrrole-2-carboxamido)-3-methoxypiperidin-1-yl)-4-(1-methyl-1H-imidazol-4-yl)thiazole-5-carboxylate]: 86.6%; for `COC(=O)c1sc(N2CC[C@@H](NC(=O)c3[nH]c(C)c(Cl)c3Cl)[C@@H](F)C2)nc1-c1ncnn1C` [Example 67]: 75.2%; for `COC(=O)c1sc(N2CC[C@@H](NC(=O)c3[nH]c(C)c(Cl)c3Cl)[C@@H](F)C2)nc1-c1cn(C)nn1` [Example 99, methyl 2-((3S,4R)-4-(3,4-dichloro-5-methyl-1H-pyrrole-2-carboxamido)-3-fluoropiperidin-1-yl)-4-(1-methyl-1H-1,2,3-triazol-4-yl)thiazole-5-carboxylate]: 102%.
Regarding `Cc1[nH]c(C(=O)N[C@@H]2CCN(c3nc(-c4csc(N)n4)c(C(=O)O)s3)C[C@@H]2F)c(Cl)c1Cl` [Example 36, 2′-Amino-2-((3S,4R)-4-{[(3,4-dichloro-5-methyl-1H-pyrrol-2-yl)carbonyl]amino}-3-fluoropiperidin-1-yl)-4,4′-bi-1,3-thiazole-5-carboxylic acid], the inhibition at 1 µM amounted to 99.6%.
On to `COCCn1ccnc1-c1nc(N2CC[C@@H](NC(=O)c3[nH]c(C)c(Cl)c3Cl)[C@@H](OCc3ccccc3)C2)sc1C(=O)O` [Example 143, 2-[(3S,4R)-3-(benzyloxy)-4-{[(3,4-dichloro-5-methyl-1H-pyrrol-2-yl)carbonyl]amino}piperidin-1-yl]-4-[1-(2-methoxyethyl)-1H-imidazol-2-yl]-1,3-thiazole-5-carboxylic acid], for which the inhibition at 1 µM was found to be 98.8%.
On the same count and under the same terms, in the case of `COCCn1ccnc1-c1nc(N2CC[C@@H](NC(=O)c3[nH]c(C)c(Cl)c3Cl)[C@@H](OC)C2)sc1C(=O)OC` [Example 64] it was 96.2%; in that of `CO[C@H]1CN(c2nc(-c3nccs3)c(C(=O)O)s2)CC[C@H]1NC(=O)c1[nH]c(C)c(Cl)c1Cl` [Example 3, 2′-((3S,4R)-4-{[(3,4-Dichloro-5-methyl-1H-pyrrol-2-yl)carbonyl]amino}-3-methoxypiperidin-1-yl)-2,4′-bi-1,3-thiazole-5′-carboxylic acid], 98.6%.
For the molecule `CCOC(=O)c1sc(N2CC[C@@H](NC(=O)c3[nH]c(C)c(Cl)c3Cl)[C@@H](F)C2)nc1-c1ccncn1` [Example 46], the inhibition at 1 µM came to 102%.
The same measure, in the same setting: the same measure for `Cc1[nH]c(C(=O)N[C@@H]2CCN(c3nc(-c4ccncn4)c(C(=O)O)s3)C[C@@H]2F)c(Cl)c1Cl` [Example 5, 2-((3S,4R)-4-{[(3,4-Dichloro-5-methyl-1H-pyrrol-2-yl)carbonyl]amino}-3-fluoropiperidin-1-yl)-4-pyrimidin-4-yl-1,3-thiazole-5-carboxylic acid]: 99.4%; for `CNc1nc(-c2nc(N3CC[C@@H](NC(=O)c4[nH]c(C)c(Cl)c4Cl)[C@@H](OC)C3)sc2C(=O)OC)cs1` [Example 72]: 101%.
On the same count and under the same terms, the same measure for `COC(=O)c1sc(N2CC[C@@H](NC(=O)c3[nH]c(C)c(Cl)c3Cl)[C@@H](OC)C2)nc1-c1ccn[nH]1` [Example 62]: 99.9%; for `CCOC(=O)c1sc(N2CC[C@@H](NC(=O)c3[nH]c(C)c(Cl)c3Cl)[C@@H](F)C2)nc1-c1ccccn1` [Example 49]: 112%; for `CCCO[C@H]1CN(c2nc(-c3ncccc3F)c(C(=O)O)s2)CC[C@H]1NC(=O)c1[nH]c(C)c(Cl)c1Cl` [Example 160, 2-[(3S,4R)-4-{[(3,4-dichloro-5-methyl-1H-pyrrol-2-yl)carbonyl]amino}-3-propoxypiperidin-1-yl]-4-(3-fluoropyridin-2-yl)-1,3-thiazole-5-carboxylic acid]: 4.5%.
For `CCOC(=O)c1sc(N2CC[C@@H](NC(=O)c3[nH]c(C)c(Cl)c3Cl)[C@@H](OC)C2)nc1-c1nnc(C)o1` [Example 85, Ethyl 2-((3S,4R)-4-{[(3,4-dichloro-5-methyl-1H-pyrrol-2-yl)carbonyl]amino}-3-methoxypiperidin-1-yl)-4-(5-methyl-1,3,4-oxadiazol-2-yl)-1,3-thiazole-5-carboxylate], the inhibition at 1 µM is 102%.
Turning to `CO[C@H]1CN(c2nc(-c3nc(C)c(C)n3C)c(C(=O)O)s2)CC[C@H]1NC(=O)c1[nH]c(C)c(Cl)c1Cl` [Example 32, 2-((3S,4R)-4-{[(3,4-Dichloro-5-methyl-1H-pyrrol-2-yl)carbonyl]amino}-3-methoxypiperidin-1-yl)-4-(1,4,5-trimethyl-1H-imidazol-2-yl)-1,3-thiazole-5-carboxylic acid], the inhibition at 1 µM came to 99.9%.
Same read-out and setting: in the case of `CCOC(=O)c1sc(N2CC[C@@H](NC(=O)c3[nH]c(C)c(Cl)c3C#N)[C@@H](OC)C2)nc1-c1ncccc1F` [Example 106, ethyl 2-((3S,4R)-4-(4-chloro-3-cyano-5-methyl-1H-pyrrole-2-carboxamido)-3-methoxypiperidin-1-yl)-4-(3-fluoropyridin-2-yl)thiazole-5-carboxylate] it was 101%; in that of `COC(=O)c1sc(N2CC[C@@H](NC(=O)c3[nH]c(C)c(Cl)c3Cl)[C@@H](F)C2)nc1-c1ccn[nH]1` [Example 63], 99.8%.

Staying with this test, now noted: compound tested at a concentration of 5 μM.
As for `CCCO[C@H]1CN(c2nc(-c3cnccn3)c(C(=O)O)s2)CC[C@H]1NC(=O)c1[nH]c(C)c(Cl)c1Cl` [Example 161, 2-[(3S,4R)-4-{[(3,4-dichloro-5-methyl-1H-pyrrol-2-yl)carbonyl]amino}-3-propoxypiperidin-1-yl]-4-(pyrazin-2-yl)-1,3-thiazole-5-carboxylic acid], the inhibition at 5 µM is 14%.

The values are drawn from patent US20080312255A1 (ASTRAZENECA AB, priority 2007, published 2008).
